Experimental findings from patent US20080114007A1 (priority 2006, published 2008) are described below.

Where only a bound is given, the exact number is not on record here.

Sequence of CSF-1R (P07333 20-972): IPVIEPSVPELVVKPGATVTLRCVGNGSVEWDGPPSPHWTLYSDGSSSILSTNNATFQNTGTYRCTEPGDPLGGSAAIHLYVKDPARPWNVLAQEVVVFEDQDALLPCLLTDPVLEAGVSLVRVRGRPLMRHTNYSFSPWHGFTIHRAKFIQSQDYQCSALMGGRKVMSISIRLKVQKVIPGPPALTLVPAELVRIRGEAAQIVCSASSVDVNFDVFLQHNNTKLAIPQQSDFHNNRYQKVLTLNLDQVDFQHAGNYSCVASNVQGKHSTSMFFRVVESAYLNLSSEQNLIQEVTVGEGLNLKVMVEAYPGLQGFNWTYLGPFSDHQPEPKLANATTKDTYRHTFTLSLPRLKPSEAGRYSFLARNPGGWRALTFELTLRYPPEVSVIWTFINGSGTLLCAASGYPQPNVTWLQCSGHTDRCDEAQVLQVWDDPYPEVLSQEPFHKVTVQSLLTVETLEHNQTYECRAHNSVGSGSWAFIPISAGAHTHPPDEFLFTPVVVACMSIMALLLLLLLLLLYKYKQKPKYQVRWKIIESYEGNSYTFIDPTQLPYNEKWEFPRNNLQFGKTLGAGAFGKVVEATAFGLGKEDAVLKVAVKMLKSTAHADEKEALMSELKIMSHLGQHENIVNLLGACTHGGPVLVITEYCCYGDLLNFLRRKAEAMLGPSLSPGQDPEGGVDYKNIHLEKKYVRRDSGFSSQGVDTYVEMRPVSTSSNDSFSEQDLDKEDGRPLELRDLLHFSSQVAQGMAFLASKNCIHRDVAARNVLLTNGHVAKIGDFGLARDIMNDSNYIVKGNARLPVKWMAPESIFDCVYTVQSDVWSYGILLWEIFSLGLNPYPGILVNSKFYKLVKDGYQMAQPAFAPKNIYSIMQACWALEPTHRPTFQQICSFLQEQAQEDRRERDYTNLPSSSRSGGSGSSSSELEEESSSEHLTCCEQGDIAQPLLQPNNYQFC
Sequence of c-fms (P07333 20-972): as above

For the first assay, the target named is c-fms (Homo sapiens, UniProt P07333). Put plainly: Autophosphorylation, fluorescence polarization competition immunoassay. The assay is classed as biochemical. To be noted: 10 nM c-fms, 1 mM ATP, 5 mM MgCl2, 45 min; averages of three independent measurements. Here is the method:
The assay buffer used was 100 mM 4-(2-hydroxyethyl)piperazine 1-ethanesulfonic acid (HEPES), pH 7.5, 1 mM 1,4-dithio-DL-threitol (DTT), 0.01% (v/v) Tween-20. Compounds were diluted in assay buffer containing 4% dimethylsulfoxide (DMSO) just prior to the assay. […] The kinase reaction was initiated by adding 2 μL of 5 mM ATP (Sigma) in assay buffer. The final concentrations in the assay were 10 nM c-fms, 1 mM ATP, 5 mM MgCl2, 2% DMSO. Control reactions were ran in each plate: in positive and negative control wells, assay buffer (made 4% in DMSO) was substituted for the compound; in addition, positive control wells received 1.2 μL of 50 mM ethylenediaminetetraacetic acid (EDTA).
At the end of the incubation, the reaction was quenched with 1.2 μL of 50 mM EDTA (EDTA was not added to the positive control wells at this point; see above). Following a 5-min incubation, each well received 10 μL of a 1:1:3 mixture of anti-phosphotyrosine antibody, 10×, PTK green tracer, 10× (vortexed), FP dilution buffer, respectively (all from PanVera, cat. # P2837). The plate was covered, incubated for 30 min at room temperature and the fluorescence polarization was read on the Analyst.
The IC50 values shown in Table 1 are averages of three independent measurements.
(Polarisation of emitted light reports the rotation of a fluorescent probe.)
For the compound `NC(=O)c1cn(-c2ccc3c(c2)CCC3)c2nc(Nc3ccc(CN4CCCCC4)cc3)ncc2c1=O` [Cpd 119, 8-indan-5-yl-5-oxo-2-(4-piperidin-1-ylmethyl-phenylamino)-5,8-dihydro-pyrido[2,3-d]pyrimidine-6-carboxylic acid amide], the IC50 came to 2.6 nM.

For `CNC(=O)c1cn(-c2ccc3c(c2)CCC3)c2nc(Nc3cccc(C(=O)N4CCCCC4)c3)ncc2c1=O` [Cpd 113, 8-indan-5-yl-5-oxo-2-[3-(piperidine-1-carbonyl)-phenylamino]-5,8-dihydro-pyrido[2,3-d]pyrimidine-6-carboxylic acid methylamide], the concentration for half-maximal inhibition (IC50) is greater than 1000 nM.

The next assay has as its target CSF-1R (Homo sapiens, UniProt P07333). The assay can be described thus: Peptide (non-phosphorylated) assay, fluorescence polarization competition immunoassay. It is filed as biochemical. The following applies: 0.7 nM CSF-1R, 308 μM SYEGNSYTFIDPTQ peptide, 1 mM ATP, 80 min; mean of at least three determinations; read-out: c-fms Peptide IC50. The method, boiled down: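 Read-out is fluorescence polarization: after EDTA quench, anti-phosphotyrosine antibody plus PTK green tracer compete with the phosphorylated peptide for 30 min. The CSF-1R reaction itself ran 80 min at room temperature after ATP addition. DMSO (4%) wells served as controls, positive controls pre-treated with EDTA.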
Take `CCc1ccc(-n2cc(C(=O)NOC)c(=O)c3cnc(Nc4ccc(C5CCN(S(N)(=O)=O)CC5)cc4)nc32)cc1` [Cpd 179, 8-(4-ethyl-phenyl)-5-oxo-2-[4-(1-sulfamoyl-piperidin-4-yl)-phenylamino]-5,8-dihydro-pyrido[2,3-d]pyrimidine-6-carboxylic acid methoxy-amide]: the IC50 is 1.8 nM.

`CCc1ccc(-n2cc(C(=O)NOC)c(=O)c3cnc(Nc4ccc(C5CCN(CC)CC5)cc4)nc32)cc1` [Cpd 157, 8-(4-ethyl-phenyl)-2-[4-(1-ethyl-piperidin-4-yl)-phenylamino]-5-oxo-5,8-dihydro-pyrido[2,3-d]pyrimidine-6-carboxylic acid methoxy-amide]: the IC50 came to 0.4 nM.

In the case of `CCONC(=O)c1cn(C2CCCCC2)c2nc(Nc3ccc(C[C@H]4COC(=O)N4)cc3)ncc2c1=O` [Cpd 23, (S)-8-cyclohexyl-5-oxo-2-[4-(2-oxo-oxazolidin-4-ylmethyl)-phenylamino]-5,8-dihydro-pyrido[2,3-d]pyrimidine-6-carboxylic acid ethoxy-amide], the IC50 was 3 nM.

Regarding `CCONC(=O)c1cn(-c2ccc3c(c2)CCC3)c2nc(Nc3ccc(C[C@H]4COC(=O)N4)cc3)ncc2c1=O` [Cpd 68, (S)-8-indan-5-yl-5-oxo-2-[4-(2-oxo-oxazolidin-4-ylmethyl)-phenylamino]-5,8-dihydro-pyrido[2,3-d]pyrimidine-6-carboxylic acid ethoxy-amide], the IC50 amounted to 0.7 nM.

Turning to `CONC(=O)c1cn(-c2ccc3c(c2)CCC3)c2nc(Nc3ccc([C@@]4(O)CCN(C)C[C@@H]4O)cc3)ncc2c1=O` [Cpd 236, 2-{4-[(3S,4S)-(3,4-dihydroxy-1-methyl-piperidin-4-yl)]-phenylamino}-8-indan-5-yl-5-oxo-5,8-dihydro-pyrido[2,3-d]pyrimidine-6-carboxylic acid methoxy-amide], the IC50 is 0.47 nM.

For the compound `CCc1ccc(-n2cc(C(=O)NOC(C)C)c(=O)c3cnc(Nc4ccc(C5CCN(CC)CC5)cc4)nc32)cc1` [Cpd 182, 8-(4-ethyl-phenyl)-2-[4-(1-ethyl-piperidin-4-yl)-phenylamino]-5-oxo-5,8-dihydro-pyrido[2,3-d]pyrimidine-6-carboxylic acid isopropoxy-amide], the IC50 is 0.7 nM.

`CONC(=O)c1cn(-c2ccc3c(c2)CCC3)c2nc(Nc3ccc(C4CCN(CC(F)(F)F)CC4)cc3)ncc2c1=O` [Cpd 292, 8-indan-5-yl-5-oxo-2-{4-[1-(2,2,2-trifluoro-ethyl)-piperidin-4-yl]-phenylamino}-5,8-dihydro-pyrido[2,3-d]pyrimidine-6-carboxylic acid methoxy-amide]: the IC50 was determined as 6 nM.

For orientation: IC50 means the midpoint of a concentration-inhibition curve.
